# Literature values as cited in patent US20040266821A1, “Acylated piperidine derivatives as melanocortin-4 receptor agonists” (priority 2001, published 2004).
# Assays:
# [1] = not given; remark: listed apart in the source
# [2] = oral route
compound,measurement,setting,value
Cc1ccc(N(CC2=NCCN2)c2cccc(O)c2)cc1 [phentolamine],duration of effect,after an oral dose,2 h
same,onset of action,after an oral dose,5 to 30 min
same,share of men/patients with adequate response,oral,35-40%
Ac-Nle-c[Asp-His-DPhe-Arg-Trp-Lys]-NH2 [MT-II],duration of action,[1]; in vivo,approximately 2.5 hours
same,time to onset of erection,[1]; in vivo,10 to 20 min
same,response rate,[1]; injected intramuscularly or subcutaneously,75%
same,absorption into the systemic circulation,[2],not absorbed into the systemic circulation
